Experimental data reported in ChEMBL document CHEMBL2434868, “Chemical investigation of an antimalarial Chinese medicinal herb Picrorhiza scrophulariiflora” (Bioorg Med Chem Lett, 2013).

The compounds below were run on Plasmodium falciparum (assay: Antimalarial activity against ring stage of Plasmodium falciparum 3D7 infected in erythrocytes assessed as [3H]-hypoxanthine incorporation after 48 hrs by liquid scintillation counting analysis). Details: not given.
Type: functional, organism-based

Structure (SMILES)	IC50	IC90	IC95
COc1cc(C(C)=O)ccc1O[C@@H]1O[C@H](COC(=O)/C=C/c2ccc(O)cc2)[C@@H](O)[C@H](O)[C@H]1O	> 25 µM	–	–
COc1cc(/C=C/C(=O)OC[C@H]2O[C@@H](Oc3ccc(C(C)=O)cc3OC)[C@H](O)[C@@H](O)[C@@H]2O)ccc1O	> 25 µM	–	–
CC(=O)OC(C)(C)/C=C/C(=O)[C@](C)(O)[C@H]1[C@H](O)C[C@@]2(C)[C@@H]3CC=C4[C@H](C[C@H](O[C@@H]5O[C@H](CO)[C@@H](O)[C@H](O)[C@H]5O)[C@H](O)C4(C)C)[C@]3(C)CC[C@]12C	8.3 µM	17.3 µM	23.5 µM
O=C(/C=C/c1ccccc1)OC[C@H]1O[C@@H](O[C@@H]2OC=C[C@H]3[C@H](O)[C@@H]4O[C@]4(CO)[C@@H]23)[C@H](O)[C@@H](O)[C@@H]1O [PICROSIDE I]	> 25 µM	–	–

Now from value to compound, other results behind:

IC50	Structure (SMILES)	IC90	IC95
> 25 µM	COc1cc(C(=O)O)ccc1O[C@@H]1O[C@H](COC(=O)/C=C/c2ccccc2)[C@@H](O)[C@H](O)[C@H]1O	–	–
> 25 µM	O=C(/C=C/c1ccccc1)OC[C@H]1O[C@@H](OC[C@@H](O)[C@@H](O)[C@H](O)[C@H](O)CO)[C@H](O)[C@@H](O)[C@@H]1O	–	–
> 25 µM	O=C(/C=C/c1ccc(O)c(O)c1)OC[C@H]1O[C@@H](OC[C@@H](O)[C@@H](O)[C@H](O)[C@H](O)CO)[C@H](O)[C@@H](O)[C@@H]1O	–	–
> 25 µM	CC(=O)c1ccc(O[C@@H]2O[C@H](COC(=O)/C=C/c3ccc(O)cc3)[C@@H](O)[C@H](O)[C@H]2O)cc1	–	–
> 25 µM	CC(=O)OC(C)(C)CCC(=O)[C@](C)(O)[C@H]1[C@H](O)C[C@@]2(C)[C@@H]3CC=C4[C@H](C[C@H](O[C@@H]5O[C@H](CO)[C@@H](O)[C@H](O)[C@H]5O)[C@H](O)C4(C)C)[C@]3(C)CC[C@]12C	–	–
> 25 µM	COc1cc(C(C)=O)ccc1O[C@@H]1O[C@H](COC(=O)/C=C/c2ccccc2)[C@@H](O)[C@H](O)[C@H]1O	–	–

What follows are compounds tested on NFF (assay: Cytotoxicity against human NFF cells up to 100 uM after 3 days by SRB assay). Details: 72 h.
Type: cell-based

Structure (SMILES)	Activity
CC(=O)OC(C)(C)/C=C/C(=O)[C@](C)(O)[C@H]1[C@H](O)C[C@@]2(C)[C@@H]3CC=C4[C@H](C[C@H](O[C@@H]5O[C@H](CO)[C@@H](O)[C@H](O)[C@H]5O)[C@H](O)C4(C)C)[C@]3(C)CC[C@]12C	Non-toxic
